Data published in patent US12729381B2, “Methods and compositions for inactivating interleukin-2-inducible t-cell kinase (ITK)” (priority 2020, dated 2026).
Non-standard residues stand in square brackets, D forms with d. No end group written: not given here. *: point of attachment. FITC = O=C1OC2(c3ccc(O)cc3Oc3cc(O)ccc32)c2ccc(NC(=S)*)cc21; pY = N[C@@H](Cc1ccc(OP(=O)(O)O)cc1)C(=O)O

How the values were obtained:
SLP76: ITK signaling = experiment: Western blot of signaling proteins in human T cells from PBMC stimulated with anti-CD3 (OKT3); format: cell-based; details: vs vehicle alone
Procedure: Western blotting: For protein analysis, T cells were either nonstimulated, or stimulated with anti-CD3 and anti-CD28 for 24 hours overnight, and were lysed with freshly prepared lysis buffer (RIPA Buffer (Fisher Scientific cat #PI89900)+cOmplete Protease Inhibitor Cocktail (Sigma-Aldrich; cat #11697498001)) and centrifuged for 10 minutes at 14000 rpm at 4° C. Protein aliquots of 70 μg of protein were loaded on a 12-18% denaturing polyacrylamide gel and transferred to nitrocellulose membranes for immunoblot analysis using antibodies specific to proteins of interest.
Human Samples: According to our IRB protocol (1140566-4), blood samples were obtained by vein puncture, and T cells were isolated from peripheral blood mononuclear cells (PBMC) of regular healthy donors. T cells were isolated from patient and healthy donor samples by Ficoll-Hypaque density centrifugation. The final product was resuspended at 3×10^6 cells/ml in media and stimulated with OKT-3/anti-CD3 ([…]; Ortho Bio-Tech) and anti-human CD28 ([…]; Biolegend; cat #302902) presence of […] of protamine sulfate and 1 mg/ml SLP76pTYR or vehicle for five minutes. T cell lysates were used in western blot analysis.
ITK deficiency is known to enhance the development of regulatory T cells (Tregs) (Elmore et al., 2020, Owen et al., 2019) so the peptide inhibitor was tested to determine whether inhibition of the ITK: SLP76Y145 interactions using SLP76pTYR would induce Tregs. First, the frequency of Tregs was examined by expression of CD4^+ and FoxP3^+ (FIG. 18A). Next, total mouse T cells were stimulated with anti-CD3 (Sugie et al., 2004) in the presence of either SLP76pTYR, nonspecific peptide, or vehicle alone for 5 to 24 hours, and cells were harvested and examined for the presence of Tregs (CD4^+CD25^+FoxP3^+). […] Next, the effects of SLP76pTYR peptide on human PBMC samples from healthy human patients was investigated. T cells from these patients were stimulated with anti-CD3 (OKT3) (Karimi et al., 2005) for 5 minutes in the presence of SLP76pTYR or vehicle alone. […] No differences in stimulated or unstimulated total human AKT (FIG. 18E and FIG. 28H) was observed, providing a showing that the SLP76pTYR peptide has an impact on signaling pathways downstream of SLP76 in both mouse and human T cells. […] Next, the ability of SLP76pTYR peptide to affect the production of proinflammatory cytokines in human PBMCs was investigated. T cells from healthy human were stimulated with anti-CD3 (OKT3) and anti-CD28 in the presence of SLP76pTYR or vehicle alone, along with Brefeldin A. T cells incubated with SLP76pTYR or vehicle alone were also examined in the presence of PMA+lonomycin and Brefeldin A for 6 hours.
More specifically, FIGS. 18A-18F depict Novel peptide SLP76pTYR specifically targets SLP76: ITK signaling and enhances Treg cell development. (FIG. 18A) Murine CD4^+ T cells were examine for total CD4+ and FOXP3 expression prior to treatment with SLP76pTYR. n=3, and one representative experiment is shown. (FIG. 18B) Total T cells stimulated in the presence of SLP76pTYR, nonspecific peptide, or vehicle alone were examined for total CD4 cells that are FoxP3^+. n=3, and one representative experiment is shown. (FIG. 18C) Quantification of three experiments as in (A) (FIG. 18D) Cell lysates were obtained from mouse T cells stimulated with anti-CD3 and anti-CD28 in the presence of SLP76pTYR, or vehicle alone. […]

human T cells = experiment: Intracellular IFN-γ and TNF-α production by primary human T cells from PBMCs (flow cytometry); format: cell-based; details: anti-CD3/anti-CD28 with Brefeldin A, 6 hours; vs vehicle alone
Procedure: ITK deficiency is known to enhance the development of regulatory T cells (Tregs) (Elmore et al., 2020, Owen et al., 2019) so the peptide inhibitor was tested to determine whether inhibition of the ITK: SLP76Y145 interactions using SLP76pTYR would induce Tregs. First, the frequency of Tregs was examined by expression of CD4^+ and FoxP3^+ (FIG. 18A). Next, total mouse T cells were stimulated with anti-CD3 (Sugie et al., 2004) in the presence of either SLP76pTYR, nonspecific peptide, or vehicle alone for 5 to 24 hours, and cells were harvested and examined for the presence of Tregs (CD4^+CD25^+FoxP3^+). […] Next, the effects of SLP76pTYR peptide on human PBMC samples from healthy human patients was investigated. T cells from these patients were stimulated with anti-CD3 (OKT3) (Karimi et al., 2005) for 5 minutes in the presence of SLP76pTYR or vehicle alone. […]
More specifically, FIGS. 18A-18F depict Novel peptide SLP76pTYR specifically targets SLP76: ITK signaling and enhances Treg cell development. […] (FIG. 18C) Quantification of three experiments as in (A) (FIG. 18D) Cell lysates were obtained from mouse T cells stimulated with anti-CD3 and anti-CD28 in the presence of SLP76pTYR, or vehicle alone. […] Intracellular IFN-γ and TNF-α expression by CD8^+ and CD4+ T cells was determined by flow cytometry. […]

Substance: FITC Dye ^132NEEEEAPVEDDADpYEPPPSNDEEA^155-TAT ({FITC}-NEEEEAPVEDDAD[pY]EPPPSNDEEAGRKKRRQRRRPQ) [SLP76pTYR]
- phosphorylation of ERK, stimulated (SLP76: ITK signaling; anti-CD3 (OKT3) for 5 minutes): reduced phosphorylation of PLCγ1 and ERK
- phosphorylation of PLCγ1, stimulated (SLP76: ITK signaling; anti-CD3 (OKT3) for 5 minutes): reduced phosphorylation of PLCγ1 and ERK
- non-stimulated phospho ERK (SLP76: ITK signaling; non-stimulated T cells): No differences in non-stimulated phospho PLCγ1 and ERK were observed
- non-stimulated phospho PLCγ1 (SLP76: ITK signaling; non-stimulated T cells): No differences in non-stimulated phospho PLCγ1 and ERK were observed
- total AKT and stimulated or unstimulated phospho AKT (SLP76: ITK signaling): No differences in total AKT or either stimulated or unstimulated phospho AKT was observed
- IFN-γ production (human T cells): significantly reduced IFN-γ and TNF-α production
- TNF-α production (human T cells): significantly reduced IFN-γ and TNF-α production
